Data: PubChem BioAssay (NCI)
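Tested at 5 concentrations; 48 h exposure; 96-well plates; endpoints linearly interpolated, else capped at highest concentration. TGI denotes the concentration required for complete inhibition of growth.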

Experiments:
Test in all cases: DTP human tumour cell line panel, 48 h
A549 NSCLC = tested on: A549 NSCLC
CCRF-CEM leukemia = tested on: CCRF-CEM leukemia
HCT-15 colon = tested on: HCT-15 colon
NCI-H522 lung = tested on: NCI-H522 lung
NCI/ADR-RES ovarian = tested on: NCI/ADR-RES ovarian
RXF 393 renal = tested on: RXF 393 renal
SW-620 colon = tested on: SW-620 colon
SR leukemia = tested on: SR leukemia
UACC-257 melanoma = tested on: UACC-257 melanoma
OVCAR-3 ovarian = tested on: OVCAR-3 ovarian

Row | Structure (SMILES) | TGI (A549 NSCLC) [µM] | TGI (CCRF-CEM leukemia) [µM] | TGI (HCT-15 colon) [µM] | TGI (NCI-H522 lung) [µM] | TGI (NCI/ADR-RES ovarian) [µM] | TGI (RXF 393 renal) [µM] | TGI (SW-620 colon) [µM] | TGI (SR leukemia) [µM] | TGI (UACC-257 melanoma) [µM] | TGI (OVCAR-3 ovarian) [µM]
1 | O=c1c(-c2ccc(Cl)cc2)nnc2n(Cc3ccccc3)c3ccccc3n12 | > 100 | > 100 | > 100 | > 100 | > 100 | 40.2 | > 100 | > 100 | > 100 | –
2 | Cc1c2ncccc2cc2oc3ccccc3c(=O)c12 | > 100 | > 100 | > 100 | > 100 | > 100 | > 100 | > 100 | > 100 | > 100 | > 100
3 | CCOc1cc(-c2nc3ccccn3c2/N=C/c2cc(Br)ccc2O)ccc1O | > 100 | > 100 | > 100 | > 100 | 93 | 32 | > 100 | > 100 | 53.5 | 34
4 | CC1(C)CNC(=O)C2(C=NC(C)(C)CNC(=O)C3(C=N1)CCCO3)CCCO2 (stereo unspecified) | > 10 | > 10 | > 10 | > 10 | > 10 | > 10 | > 10 | > 10 | > 10 | > 10
5 | CC1(C)OCC2OC3([C@H]4OC(C)(C)O[C@@H]4CO)OC(C)(C)OC3C2O1 (stereo partly specified) | > 100 | > 100 | > 100 | – | > 100 | > 100 | > 100 | > 100 | > 100 | > 100
6 | Cc1nn(-c2cc(Cl)ccc2[N+](=O)[O-])c(C)c1Cl | > 100 | > 100 | > 100 | > 100 | > 100 | 76 | > 100 | > 100 | > 100 | > 100
7 | O=c1c2ccccc2nc(Nc2cccc(Cl)c2)n1/N=C/C=C/c1ccccc1 | > 100 | > 100 | > 100 | > 100 | > 100 | > 100 | > 100 | > 100 | > 100 | > 100
8 | COc1cc(/C=C\C(=O)O)ccc1OCc1ccccc1 | > 100 | > 100 | > 100 | > 100 | > 100 | > 100 | > 100 | > 100 | > 100 | > 100
9 | CCOC(=O)C(CC#Cc1ccc(C#CCC(NC(C)=O)C(=O)OCC)cc1)NC(C)=O (stereo unspecified) | > 100 | > 100 | > 100 | > 100 | > 100 | > 100 | > 100 | > 100 | > 100 | > 100
10 | COC(=O)c1ccc(C=Nc2ccc(S(N)(=O)=O)cc2)cc1 | > 100 | 83 | > 100 | – | > 100 | > 100 | – | > 100 | > 100 | > 100
11 | CCOn1c(C2(CC3CCN(C(=O)c4ccccc4)CC3)OCCO2)cc2ccccc21 | 32.4 | 31.7 | 42.3 | 35 | 33.9 | 31.2 | 35.7 | 22.5 | 23 | 30
12 | CCOC(=O)C(NC(=O)CC(C)C)(N1CCN(c2cc3c(cc2F)c(=O)c(C(=O)O)cn3C2CC2)CC1)C(F)(F)F (stereo unspecified) | > 100 | 14 | 22.3 | 11.9 | 52.2 | 35.8 | 74.1 | 45.8 | 57 | 66.7
13 | Cn1c2ccccc2n2c(=O)c3cc([N+](=O)[O-])ccc3c(C#N)c12 | > 100 | > 100 | > 100 | > 100 | > 100 | > 100 | > 100 | > 100 | > 100 | > 100
14 | CC1CC(=O)Nc2nc3ccccc3n21 (stereo unspecified) | > 100 | > 100 | > 100 | > 100 | > 100 | > 100 | > 100 | > 100 | > 100 | > 100
15 | CNC(=O)N(CCC#N)[C@H]1CCCC[C@@H]1N(C(=O)NC)c1ccccc1 | > 100 | > 100 | > 100 | > 100 | > 100 | > 100 | > 100 | > 100 | > 100 | > 100
16 | NC(=O)C(=CNC(=S)c1ccncc1)C(N)=O | > 100 | > 100 | > 100 | > 100 | > 100 | > 100 | > 100 | > 100 | > 100 | > 100
17 | CC1(CNCc2ccccc2)CC(CCc2ccccc2)N(C(=O)c2ccc([N+](=O)[O-])cc2)C1Cc1ccc(O)cc1 (stereo unspecified) | 24.8 | > 100 | 26.3 | 22.3 | 36 | 17.4 | 86 | > 100 | 27 | 24.6
18 | CCNC(=O)C1CCCN1C(=O)C(CCCN=C(N)N)NC(=O)C(CC(C)C)NC(=O)C(Cc1c[nH]c2ccccc12)NC(=O)C(Cc1ccc(O)cc1)NC(=O)C(CO)NC(=O)C(Cc1c[nH]c2ccccc12)NC(=O)C(Cc1cnc[nH]1)NC(=O)C1CCC(=O)N1 (stereo unspecified) | > 100 | > 100 | > 100 | > 100 | > 100 | > 100 | > 100 | > 100 | > 100 | > 100
19 | COc1cc(I)c2c3c1OC1C34CCN(C)C(C2)C4=CC(I)C1(OC)OC (stereo unspecified) | > 100 | 26.8 | 63.4 | 44.2 | 68 | 38.2 | 52.2 | 40.9 | 49.4 | 59
20 | O=C(Cc1ccc([N+](=O)[O-])cc1)OCC#CCOC(=O)Cc1ccc([N+](=O)[O-])cc1 | > 10 | > 10 | > 10 | > 10 | > 10 | > 10 | > 10 | > 10 | > 10 | > 10
21 | COCc1nc2c(OC)cc(-c3nc4ccc(N5CCN(C)CC5)cc4[nH]3)c(OC)c2[nH]1 | > 100 | > 100 | > 100 | > 100 | > 100 | 51.9 | > 100 | 54.6 | 34.6 | 77.5
